ChEMBL document CHEMBL5715260, “Selectivity Literature for EUbOPEN Chemogenomic Library” (2024)

Experiments:
Set-up in all cases: recommended concentration 1 uM
[1] = biological target: T1, Retinoic acid receptor RXR-alpha (Homo sapiens) (UniProt P19793); experiment: Selectivity interaction (Reporter gene assay) EUB0000190b RXRA; settings: reference bexarotene 1 uM, Selectivity number of off-targets 0.0, Selectivity number of targets 1.0, Source Knowledge inhouse
T1 sequence (whole entry): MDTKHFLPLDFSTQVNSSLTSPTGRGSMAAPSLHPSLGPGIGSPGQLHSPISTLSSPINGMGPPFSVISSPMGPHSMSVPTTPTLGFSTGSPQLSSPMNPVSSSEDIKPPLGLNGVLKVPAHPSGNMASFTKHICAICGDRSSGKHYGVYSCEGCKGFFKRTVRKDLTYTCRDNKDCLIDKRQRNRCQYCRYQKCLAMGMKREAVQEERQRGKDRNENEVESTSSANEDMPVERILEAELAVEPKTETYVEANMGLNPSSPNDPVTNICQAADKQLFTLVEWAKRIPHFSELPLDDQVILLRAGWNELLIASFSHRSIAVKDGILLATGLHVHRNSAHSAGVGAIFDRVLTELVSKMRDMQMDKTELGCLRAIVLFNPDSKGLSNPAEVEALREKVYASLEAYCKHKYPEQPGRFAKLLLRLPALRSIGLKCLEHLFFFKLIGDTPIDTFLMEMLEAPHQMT

[2] = biological target: T2, Alpha trans-inducing protein (Human alphaherpesvirus 1) (UniProt A0A5J6DW59); experiment: Selectivity interaction (Reporter gene assay) EUB0000190b UL48
[3] = biological target: Steroidogenic factor 1 (Homo sapiens) (UniProt Q13285); experiment: Selectivity interaction (Reporter gene assay) EUB0000190b NR5A1
[4] = biological target: T3, Hepatocyte nuclear factor 4-alpha (Homo sapiens) (UniProt P41235); experiment: Selectivity interaction (Reporter gene assay) EUB0000190b HNF4A
T3 sequence (whole entry): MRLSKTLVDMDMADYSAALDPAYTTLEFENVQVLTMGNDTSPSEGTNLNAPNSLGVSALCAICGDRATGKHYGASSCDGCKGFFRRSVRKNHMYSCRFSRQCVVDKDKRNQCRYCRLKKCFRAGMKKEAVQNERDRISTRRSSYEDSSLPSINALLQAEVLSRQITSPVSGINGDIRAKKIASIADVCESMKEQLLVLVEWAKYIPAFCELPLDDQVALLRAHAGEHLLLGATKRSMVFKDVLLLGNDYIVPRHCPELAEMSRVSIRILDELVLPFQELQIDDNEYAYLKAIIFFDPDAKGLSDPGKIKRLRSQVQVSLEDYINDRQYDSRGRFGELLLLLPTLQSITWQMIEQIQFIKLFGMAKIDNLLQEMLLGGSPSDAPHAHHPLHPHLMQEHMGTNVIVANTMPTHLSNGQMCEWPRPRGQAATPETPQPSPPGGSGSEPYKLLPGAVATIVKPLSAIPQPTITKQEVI

[5] = biological target: Nuclear receptor subfamily 4immunitygroup A member 1 (Homo sapiens) (UniProt P22736); experiment: Selectivity interaction (Reporter gene assay) EUB0000190b NR4A1
[6] = biological target: T4, Nuclear receptor subfamily 2 group C member 1 (Homo sapiens) (UniProt P13056); experiment: Selectivity interaction (Reporter gene assay) EUB0000190b NR2C1
T4 sequence (whole entry): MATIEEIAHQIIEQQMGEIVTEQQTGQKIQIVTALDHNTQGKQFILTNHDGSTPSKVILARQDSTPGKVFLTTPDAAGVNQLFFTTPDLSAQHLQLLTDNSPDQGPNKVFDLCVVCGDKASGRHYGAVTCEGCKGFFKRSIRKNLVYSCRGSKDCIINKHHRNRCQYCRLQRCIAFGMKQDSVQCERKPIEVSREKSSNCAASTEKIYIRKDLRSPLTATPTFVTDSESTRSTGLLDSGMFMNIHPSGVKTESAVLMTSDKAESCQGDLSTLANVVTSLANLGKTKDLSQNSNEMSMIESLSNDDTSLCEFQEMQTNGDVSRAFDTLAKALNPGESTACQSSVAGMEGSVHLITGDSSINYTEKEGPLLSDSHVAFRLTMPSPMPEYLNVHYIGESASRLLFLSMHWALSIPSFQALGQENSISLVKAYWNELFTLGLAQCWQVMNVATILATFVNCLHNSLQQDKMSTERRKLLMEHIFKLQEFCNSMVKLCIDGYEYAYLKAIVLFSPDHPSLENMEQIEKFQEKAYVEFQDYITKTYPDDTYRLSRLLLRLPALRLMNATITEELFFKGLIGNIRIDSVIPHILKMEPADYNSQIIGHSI

[7] = biological target: Nuclear receptor subfamily 2 group E member 1 (Homo sapiens) (UniProt Q9Y466); experiment: Selectivity interaction (Reporter gene assay) EUB0000190b NR2E1
[8] = biological target: Peroxisome proliferator-activated receptor delta (Homo sapiens) (UniProt Q03181); experiment: Selectivity interaction (Reporter gene assay) EUB0000185b PPARD; settings: screened at recom. conc., Selectivity number of off-targets 1.0, Selectivity number of targets 19.0, Source Knowledge inhouse
[9] = biological target: Nuclear receptor subfamily 4immunitygroup A member 1 (Homo sapiens) (UniProt P22736); experiment: Selectivity interaction (Reporter gene assay) EUB0000185b NR4A1
[10] = biological target: T4, Nuclear receptor subfamily 2 group C member 1 (Homo sapiens); experiment: Selectivity interaction (Reporter gene assay) EUB0000185b NR2C1
[11] = biological target: T1, Retinoic acid receptor RXR-alpha (Homo sapiens); experiment: Selectivity interaction (Reporter gene assay) EUB0000185b RXRA; settings: reference bexarotene 1 uM, Selectivity number of off-targets 0.0, Selectivity number of targets 1.0, Source Knowledge inhouse
[12] = biological target: Nuclear receptor subfamily 2 group E member 1 (Homo sapiens) (UniProt Q9Y466); experiment: Selectivity interaction (Reporter gene assay) EUB0000185b NR2E1
[13] = biological target: Steroidogenic factor 1 (Homo sapiens) (UniProt Q13285); experiment: Selectivity interaction (Reporter gene assay) EUB0000185b NR5A1
[14] = biological target: T3, Hepatocyte nuclear factor 4-alpha (Homo sapiens); experiment: Selectivity interaction (Reporter gene assay) EUB0000185b HNF4A
[15] = biological target: T2, Alpha trans-inducing protein (Human alphaherpesvirus 1); experiment: Selectivity interaction (Reporter gene assay) EUB0000185b UL48
[16] = biological target: Muscarinic acetylcholine receptor M2 (Homo sapiens) (UniProt P08172); experiment: Selectivity interaction (Custom Panel of enzymes and receptors (Eurofins)) EUB0000234b CHRM2; settings: at 10 µM
[17] = biological target: Alpha-2B adrenergic receptor (Homo sapiens) (UniProt P18089); experiment: Selectivity interaction (Custom Panel of enzymes and receptors (Eurofins)) EUB0000234b ADRA2B; settings: at 10 µM
[18] = biological target: Histamine H3 receptor (Homo sapiens) (UniProt Q9Y5N1); experiment: Selectivity interaction (Custom Panel of enzymes and receptors (Eurofins)) EUB0000234b HRH3; settings: at 10 µM
Mu-type opioid receptor = Mu-type opioid receptor (Homo sapiens, UniProt P35372); experiment: Selectivity interaction (Custom Panel of enzymes and receptors (Eurofins)) EUB0000234b OPRM1; settings: at 10 µM
[19] = biological target: T3, Hepatocyte nuclear factor 4-alpha (Homo sapiens); experiment: Selectivity interaction (Reporter gene assay) EUB0000081c HNF4A
[20] = biological target: T1, Retinoic acid receptor RXR-alpha (Homo sapiens); experiment: Selectivity interaction (Reporter gene assay) EUB0000081c RXRA
[21] = biological target: Nuclear receptor subfamily 2 group E member 1 (Homo sapiens) (UniProt Q9Y466); experiment: Selectivity interaction (Reporter gene assay) EUB0000081c NR2E1
[22] = biological target: T4, Nuclear receptor subfamily 2 group C member 1 (Homo sapiens); experiment: Selectivity interaction (Reporter gene assay) EUB0000081c NR2C1
[23] = biological target: Steroidogenic factor 1 (Homo sapiens) (UniProt Q13285); experiment: Selectivity interaction (Reporter gene assay) EUB0000081c NR5A1
[24] = biological target: T2, Alpha trans-inducing protein (Human alphaherpesvirus 1); experiment: Selectivity interaction (Reporter gene assay) EUB0000081c UL48
[25] = biological target: Nuclear receptor subfamily 4immunitygroup A member 1 (Homo sapiens) (UniProt P22736); experiment: Selectivity interaction (Reporter gene assay) EUB0000081c NR4A1
[26] = biological target: Bromodomain-containing protein 7 (Homo sapiens) (UniProt Q9NPI1); experiment: Selectivity interaction (Bromodomain panel) EUB0000323b BRD7
[27] = biological target: Transcription intermediary factor 1-alpha (Homo sapiens) (UniProt O15164); experiment: (§1) Selectivity interaction (Bromodomain panel) EUB0000323b TRIM24
[28] = biological target: Transcription intermediary factor 1-alpha (Homo sapiens) (UniProt O15164); experiment: as §1; remark: listed apart in the source
[29] = biological target: Bromodomain-containing protein 3 (Homo sapiens) (UniProt Q15059); experiment: (§2) Selectivity interaction (Bromodomain panel) EUB0000323b BRD3
[30] = biological target: Bromodomain-containing protein 3 (Homo sapiens) (UniProt Q15059); experiment: as §2; remark: listed apart in the source
[31] = biological target: Transcription initiation factor TFIID subunit 1-like (Homo sapiens) (UniProt Q8IZX4); experiment: Selectivity interaction (Bromodomain panel) EUB0000323b TAF1L
[32] = biological target: Adenosine receptor A1 (Homo sapiens) (UniProt P30542); experiment: Selectivity interaction (CEREP panel) EUB0000323b ADORA1; settings: at 10 µM
[33] = biological target: Bromodomain-containing protein 4 (Homo sapiens, UniProt O60885); experiment: Selectivity interaction (Bromodomain panel) EUB0000323b BRD4

Chain of Nuclear receptor subfamily 2 group E member 1 (Homo sapiens) (Q9Y466 whole entry): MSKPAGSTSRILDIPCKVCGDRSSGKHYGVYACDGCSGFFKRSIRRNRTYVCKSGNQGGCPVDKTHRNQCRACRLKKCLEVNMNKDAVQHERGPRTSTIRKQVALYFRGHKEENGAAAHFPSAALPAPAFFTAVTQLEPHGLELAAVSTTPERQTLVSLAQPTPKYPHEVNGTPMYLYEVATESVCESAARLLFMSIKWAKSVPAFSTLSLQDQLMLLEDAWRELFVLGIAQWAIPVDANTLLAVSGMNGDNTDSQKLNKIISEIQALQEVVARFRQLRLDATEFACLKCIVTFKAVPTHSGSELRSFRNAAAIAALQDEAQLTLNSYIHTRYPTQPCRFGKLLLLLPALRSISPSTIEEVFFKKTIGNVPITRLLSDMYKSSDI
T2 sequence (A0A5J6DW59 as listed by the source): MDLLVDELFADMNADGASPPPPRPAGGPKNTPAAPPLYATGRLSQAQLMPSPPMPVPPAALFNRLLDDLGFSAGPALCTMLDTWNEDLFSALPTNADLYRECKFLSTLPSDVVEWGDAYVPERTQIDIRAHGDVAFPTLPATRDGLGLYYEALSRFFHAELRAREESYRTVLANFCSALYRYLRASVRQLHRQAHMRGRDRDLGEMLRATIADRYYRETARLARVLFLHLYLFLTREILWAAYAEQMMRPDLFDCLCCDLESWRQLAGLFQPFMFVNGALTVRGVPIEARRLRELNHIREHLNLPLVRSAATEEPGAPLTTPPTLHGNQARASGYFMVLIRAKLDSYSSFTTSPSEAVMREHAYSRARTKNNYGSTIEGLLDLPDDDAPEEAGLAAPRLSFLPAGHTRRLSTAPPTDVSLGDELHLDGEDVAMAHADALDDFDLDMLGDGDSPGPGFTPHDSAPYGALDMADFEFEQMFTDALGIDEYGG
Chain of Steroidogenic factor 1 (Homo sapiens) (Q13285 whole entry): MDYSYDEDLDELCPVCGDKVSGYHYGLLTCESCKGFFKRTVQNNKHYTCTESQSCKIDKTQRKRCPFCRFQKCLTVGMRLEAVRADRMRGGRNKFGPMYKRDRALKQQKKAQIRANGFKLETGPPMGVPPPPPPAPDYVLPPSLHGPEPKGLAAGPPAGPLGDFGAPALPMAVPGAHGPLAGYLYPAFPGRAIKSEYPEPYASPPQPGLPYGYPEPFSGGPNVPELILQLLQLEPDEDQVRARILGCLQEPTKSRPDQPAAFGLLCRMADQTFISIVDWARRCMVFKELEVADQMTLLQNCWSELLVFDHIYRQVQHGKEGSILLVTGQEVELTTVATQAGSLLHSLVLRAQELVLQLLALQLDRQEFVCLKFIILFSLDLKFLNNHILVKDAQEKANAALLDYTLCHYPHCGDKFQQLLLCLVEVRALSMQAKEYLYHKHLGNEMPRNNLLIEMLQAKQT
Chain of Nuclear receptor subfamily 4immunitygroup A member 1 (Homo sapiens) (P22736 whole entry): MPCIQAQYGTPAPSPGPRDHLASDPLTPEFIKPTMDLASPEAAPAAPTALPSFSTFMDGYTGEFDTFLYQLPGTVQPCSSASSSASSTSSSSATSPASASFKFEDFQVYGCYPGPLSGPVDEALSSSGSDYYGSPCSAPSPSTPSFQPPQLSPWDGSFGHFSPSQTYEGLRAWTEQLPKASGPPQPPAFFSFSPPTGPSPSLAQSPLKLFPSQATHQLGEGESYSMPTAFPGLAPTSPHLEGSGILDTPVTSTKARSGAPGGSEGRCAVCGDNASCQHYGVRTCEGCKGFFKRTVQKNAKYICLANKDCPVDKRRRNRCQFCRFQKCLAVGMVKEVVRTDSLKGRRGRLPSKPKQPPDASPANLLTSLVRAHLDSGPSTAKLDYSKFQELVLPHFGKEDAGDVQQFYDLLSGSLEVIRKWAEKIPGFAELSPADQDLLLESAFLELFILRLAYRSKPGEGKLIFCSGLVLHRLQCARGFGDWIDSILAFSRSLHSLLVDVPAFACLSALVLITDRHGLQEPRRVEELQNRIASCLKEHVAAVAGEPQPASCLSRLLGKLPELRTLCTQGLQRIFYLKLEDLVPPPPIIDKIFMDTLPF
Chain of Bromodomain-containing protein 3 (Homo sapiens) (Q15059 2-726 limits assumed): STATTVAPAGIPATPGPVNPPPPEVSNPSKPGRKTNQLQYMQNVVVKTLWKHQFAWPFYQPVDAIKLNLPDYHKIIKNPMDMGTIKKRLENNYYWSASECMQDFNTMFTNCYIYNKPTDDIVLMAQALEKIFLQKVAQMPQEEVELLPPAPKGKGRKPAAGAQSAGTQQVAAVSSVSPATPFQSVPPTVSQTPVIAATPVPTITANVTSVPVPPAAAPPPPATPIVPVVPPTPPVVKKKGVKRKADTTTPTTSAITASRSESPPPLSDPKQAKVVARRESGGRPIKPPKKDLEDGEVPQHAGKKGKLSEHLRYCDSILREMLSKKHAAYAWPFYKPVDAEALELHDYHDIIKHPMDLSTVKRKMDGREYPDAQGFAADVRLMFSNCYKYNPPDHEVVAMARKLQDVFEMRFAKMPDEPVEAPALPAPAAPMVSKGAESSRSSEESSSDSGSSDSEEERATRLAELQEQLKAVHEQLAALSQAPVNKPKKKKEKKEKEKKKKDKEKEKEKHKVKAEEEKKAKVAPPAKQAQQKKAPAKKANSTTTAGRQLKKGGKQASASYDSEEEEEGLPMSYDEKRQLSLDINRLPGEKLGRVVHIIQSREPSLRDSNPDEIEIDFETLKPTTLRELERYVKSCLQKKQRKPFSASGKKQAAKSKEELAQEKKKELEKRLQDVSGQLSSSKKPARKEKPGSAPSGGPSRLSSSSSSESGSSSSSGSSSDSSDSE
Chain of Transcription intermediary factor 1-alpha (Homo sapiens) (O15164 whole entry): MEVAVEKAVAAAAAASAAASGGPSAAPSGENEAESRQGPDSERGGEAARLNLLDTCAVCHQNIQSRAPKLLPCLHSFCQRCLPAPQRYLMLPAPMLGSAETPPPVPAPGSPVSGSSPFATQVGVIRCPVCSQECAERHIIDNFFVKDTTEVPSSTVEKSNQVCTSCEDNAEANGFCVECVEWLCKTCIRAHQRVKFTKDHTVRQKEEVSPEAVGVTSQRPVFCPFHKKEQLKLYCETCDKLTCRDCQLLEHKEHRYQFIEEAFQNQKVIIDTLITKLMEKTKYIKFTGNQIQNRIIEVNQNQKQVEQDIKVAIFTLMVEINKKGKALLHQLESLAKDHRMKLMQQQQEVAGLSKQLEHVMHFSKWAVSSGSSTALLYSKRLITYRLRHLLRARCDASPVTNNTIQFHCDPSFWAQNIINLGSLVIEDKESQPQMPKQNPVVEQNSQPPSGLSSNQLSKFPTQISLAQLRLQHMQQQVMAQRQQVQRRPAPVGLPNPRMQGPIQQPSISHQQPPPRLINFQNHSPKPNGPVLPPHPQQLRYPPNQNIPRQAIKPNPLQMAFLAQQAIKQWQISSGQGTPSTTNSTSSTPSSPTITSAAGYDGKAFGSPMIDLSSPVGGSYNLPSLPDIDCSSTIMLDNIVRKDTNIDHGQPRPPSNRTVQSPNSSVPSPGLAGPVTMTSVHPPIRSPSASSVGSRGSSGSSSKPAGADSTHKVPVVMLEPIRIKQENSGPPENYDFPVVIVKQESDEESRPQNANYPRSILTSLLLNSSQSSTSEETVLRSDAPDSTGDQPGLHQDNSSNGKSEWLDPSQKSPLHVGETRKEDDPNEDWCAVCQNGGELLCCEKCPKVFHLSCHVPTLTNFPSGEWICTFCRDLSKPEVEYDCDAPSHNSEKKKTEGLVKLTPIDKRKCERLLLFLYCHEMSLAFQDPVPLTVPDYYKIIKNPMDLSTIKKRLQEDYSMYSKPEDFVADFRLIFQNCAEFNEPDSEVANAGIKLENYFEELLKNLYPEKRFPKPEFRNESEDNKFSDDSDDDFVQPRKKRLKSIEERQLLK
Chain of Adenosine receptor A1 (Homo sapiens) (P30542 whole entry): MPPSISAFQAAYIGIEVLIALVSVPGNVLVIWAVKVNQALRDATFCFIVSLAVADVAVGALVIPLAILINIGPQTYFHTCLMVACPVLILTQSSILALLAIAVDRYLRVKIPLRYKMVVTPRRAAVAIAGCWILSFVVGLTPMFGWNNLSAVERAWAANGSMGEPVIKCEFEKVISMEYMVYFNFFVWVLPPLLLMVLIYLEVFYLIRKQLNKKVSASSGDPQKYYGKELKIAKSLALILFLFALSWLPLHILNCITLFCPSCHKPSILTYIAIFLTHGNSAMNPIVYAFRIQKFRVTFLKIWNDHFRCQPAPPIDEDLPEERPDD
Chain of Peroxisome proliferator-activated receptor delta (Homo sapiens) (Q03181 whole entry): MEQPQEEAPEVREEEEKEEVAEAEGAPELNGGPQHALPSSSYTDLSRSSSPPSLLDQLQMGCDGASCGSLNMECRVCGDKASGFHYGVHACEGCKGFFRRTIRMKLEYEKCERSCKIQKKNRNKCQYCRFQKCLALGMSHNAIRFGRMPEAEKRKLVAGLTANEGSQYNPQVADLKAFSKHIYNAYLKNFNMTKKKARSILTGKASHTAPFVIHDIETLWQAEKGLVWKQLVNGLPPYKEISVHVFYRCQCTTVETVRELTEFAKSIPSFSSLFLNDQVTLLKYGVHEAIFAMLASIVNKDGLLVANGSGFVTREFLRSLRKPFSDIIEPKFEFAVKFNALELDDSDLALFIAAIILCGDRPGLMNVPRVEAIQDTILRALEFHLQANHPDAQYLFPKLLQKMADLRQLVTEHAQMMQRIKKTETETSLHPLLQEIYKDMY
Chain of Mu-type opioid receptor (P35372 whole entry): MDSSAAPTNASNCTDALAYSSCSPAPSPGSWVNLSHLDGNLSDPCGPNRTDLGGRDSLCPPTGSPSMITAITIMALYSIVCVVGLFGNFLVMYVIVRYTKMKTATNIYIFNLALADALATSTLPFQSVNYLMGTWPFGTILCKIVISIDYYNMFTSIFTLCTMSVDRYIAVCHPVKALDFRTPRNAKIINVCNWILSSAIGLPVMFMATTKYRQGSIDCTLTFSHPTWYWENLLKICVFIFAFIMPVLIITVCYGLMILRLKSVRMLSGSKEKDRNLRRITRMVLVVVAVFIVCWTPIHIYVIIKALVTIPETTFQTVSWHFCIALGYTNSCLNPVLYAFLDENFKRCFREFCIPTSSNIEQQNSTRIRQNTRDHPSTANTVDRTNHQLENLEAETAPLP

Compound `CN(CCOc1ccc(CC2SC(=O)NC2=O)cc1)c1ccccn1` (centres undefined) has a Relative activation [1] of 1.04%, a P-value [2] of 2.07e-12 and a Fold activation [3] of 1.08. The Fold activation [4] was 1.09, the Remaining activity [5] was 0.964 and the Fold activation [6] was 1.17. For the same compound, the Fold activation [7] was 1.05.
`CC(C)(Sc1ccc(CCN(CCCCC2CCCCC2)C(=O)NC2CCCCC2)cc1)C(=O)O` showed a Fold activation [8] of 19.1, a Fold activation [9] of 1.03 and a Fold activation [10] of 1.49. For the same compound, the Relative activation [11] was 0.845%, the Remaining activity [12] was 0.915 and the Remaining activity [13] was 0.897. The Remaining activity [14] was 0.944 and the P-value [15] was 2.26e-05.
`COc1cc(OC)cc(-c2noc(N3CCN(C)C4(CCN(c5ccnc(C)c5)CC4)C3)n2)c1` gave an Inhibition of control [16] greater than 50%, an Inhibition of control [17] greater than 50% and an Inhibition of control [18] greater than 50%. The Inhibition of control (Mu-type opioid receptor) was greater than 50%.
For `CC[C@H]1[C@@H](O)[C@@H]2[C@H](CC[C@]3(C)[C@@H]([C@H](C)CCC(=O)O)CC[C@@H]23)[C@@]2(C)CC[C@@H](O)C[C@@H]12`, the Fold activation [19] was 1.14, the Relative activation [20] was 0.53% and the Fold activation [21] was 1.13. For the same compound, the Fold activation [22] was 1.19, the Fold activation [23] was 1.04 and the P-value [24] was 0.000147. For the same compound, the Fold activation [25] was 1.23.
For `COc1cc2c(cc1NS(=O)(=O)c1ccc(Br)cc1C)n(C)c(=O)n2C`, the ΔTm [26] was 1.2 °C, the ΔTm [27] was 1.6 °C and the ΔTm [28] was 1.8 °C. For the same compound, the ΔTm [29] was 1.6 °C, the ΔTm [30] was 1.4 °C and the ΔTm [31] was 1.4 °C. The Inhibition of control [32] was 82% and the ΔTm [33] was 2 °C.
